Read-outs that look alike come from different tables or passages of the source.
How the values were obtained:
MC4R = molecular target: T1, MC4R (Homo sapiens, UniProt P32245); experiment: Assay of MC4R antagonist activity in cells in vitro (cAMP assay, Melanotan I stimulation); format: cell-based; details: flipin-293-MC4 cell line, Melanotan I as agonist
T1 construct: expressed in transfected cells; host or cells: flipin-293-MC4 (Flp-In 293 host, hygromycin selection)
Experimental: Test Example 1: Assay of MC4R antagonist activity in cells in vitro
a. Experimental consumables:
b. Experimental steps • ✔ Cell line: flipin-293-MC4 • ✔ Cell culture medium: DMEM, 10% fetal bovine serum, 1 × PS, 200 µg/mL hygromycin • ✔ Experimental buffer: HBSS, 20 mM HEPES, 0.1% BSA, 500 µM IBMX • ✔ Positive compound: ML00253764 c. Antagonist detection • 1. Digested cells were suspended in the experimental buffer, and then inoculated into the 384-well cell culture plate. • 2. The to-be-detected compound was added to the cell plate, and incubated at 37°C for 10 min. • 3. Melanotan I was added to the cell plate, and incubated at 37°C for 30 min. • 4. Two detection reagents EU cAMP tracer and ulight anti camp were thawed and diluted with a lysis solution in the kit. • 5. The diluted detection reagents were added to the cell plate and incubated at room temperature for 1 h. • 6. Reading was carried out by Envision. (Excitation light: 340 nm, emission light: 615 nm and 665 nm) d. Data analysis • 1. %Inhibition calculation: %Inhibition = (Signalcmpd−SignalAve_VC)/(SignalAve_PC−SignalAve_VC) × 100. [formula] • Signalcmpd: compound signal value; • SignalAve_VC: negative control signal value; • SignalAve_PC: positive control signal value; • %inhibition: inhibition percentage. • 2. Calculation of IC50 of the compound using the nonlinear fitting equation in GraphPad: Y = Bottom + (Top−Bottom)/(1+10^(∧)((LogIC50−X)×HillSlope)) [formula] X: logarithmic value of the concentration of the compound; Y: inhibition percentage

[1] = Pharmacokinetic study on the tested compound in SD male rats; format: in vivo; details: IV 1 mpk/PO 2 mpk; for AUC / Cmax / clearance / half-life: Sprague-Dawley (SD), rat, plasma
Experimental: On the day of administration, the tested compound was prepared with 5% DMSO + 5% Solutol + 90% Saline as a solvent into a solution for administration for use.
The solution for administration was administered to an intravenous injection IV group at a dose of 1 mg/kg in a concentration of 0.2 mg/mL. The solution for administration was administered to an oral gavage PO group at a dose of 2 mg/kg in a concentration of 0.2 mg/mL. The animals in the PO group were required to fast overnight in advance, drink water freely, and be fed 4 hours after administration. The IV group was not required to fast.
The animals were weighed before administration. On the day of administration, the solution was IV/PO-administered once in an administration amount calculated based on the weight. In the IV group, blood was collected from veins at 0.083 h, 0.25 h, 0.5 h, 1.0 h, 2.0 h, 4.0 h, 8.0 h, and 24 h after administration. In the PO group, blood was collected from veins at 0.25 h, 0.5 h, 1.0 h, 2.0 h, 4.0 h, 6.0 h, 8.0 h, and 24 h after administration. The amount of blood collected was about 0.20 mL. K2-EDTA was used in blood collection tubes as an anticoagulant. The collected blood sample was centrifuged (centrifugation conditions: 6800 g, 6 min, 2°C to 8°C) within 1 h to obtain plasma. The to-be-tested sample was stored in a refrigerator at -80°C before analysis.
The concentration of the tested compound in the plasma of the SD male rats was detected by the validated LC-MS/MS method.

CYP 3A4M = molecular target: T2, CYP 3A4M (Homo sapiens, UniProt P08684); experiment: Inhibition of P450 enzyme (CYP 3A4, midazolam as substrate) in human liver microsomes; format: in vitro ADME
T2 construct: from tissue; host or cells: human liver microsomes (HLM)
Experimental: The inhibitory effect of the tested compound on 3A4-M (with midazolam as a substrate) in human liver microsomes is evaluated in vitro to assess the safety of the compound.
In this study, the inhibition of CYP 3A4 enzyme in human liver microsomes by the tested compound was investigated using the human liver microsomal system and the cytochrome P450 enzyme probe substrate recommended by the FDA Guidance for In Vitro Drug Interaction Studies. The human liver microsomes were incubated separately with the tested compound of different concentrations (0 µM to 30.0 µM) and corresponding probe substrates. Then, the changes of activity of the CYP enzyme were determined, and the IC50 value was calculated, to evaluate the inhibitory potential of the tested compound on the CYP 3A4 enzyme.
Test group (TG): The human liver microsomes were incubated separately with the tested compound of different concentrations, NADPH (in a final concentration of 2.00 mM), and probe substrates (Table 4) of different enzymes in subfamilies for 5 min.
Positive control group (PC): The human liver microsomes were incubated separately with an inhibitor (Table 4), NADPH (in a final concentration of 2.00 mM), and a probe substrate (Table 4) of 3A4M for 5 min. Table 4 Probe substrate of each enzyme in the subfamily, inhibitor, and incubation system
At the end of the incubation, the reaction was terminated with a stop solution.
8 µL of 30 mM test sample was transferred to 12 µL of DMSO to give a 12 mM test sample intermediate solution, and then diluted with DMSO to give test sample working solutions in different concentrations (12 mM, 4 mM, 1.33 mM, 0.433 mM, 0.147 mM, 0.049 mM, and 0.0164 mM).
To 12 µL of DMSO was added 8 µL of 2.5 mM CYP3A4 inhibitor ketoconazole stock solution to give a 1 mM positive control inhibitor working solution.
(§1) 199 µL of 0.2 mg/mL HLM and 1 µL of test sample working solution (12 mM, 4 mM, 1.33 mM, 0.433 mM, 0.147 mM, 0.049 mM, and 0.0164 mM) were mixed uniformly. 30 µL of this liver microsome solution was added to a 96-well plate, and then 10 µL of substrate working solution (320 µM testosterone or 20 µM midazolam) was added. This preparation process was carried out in duplicate. After pre-incubation at 37°C for 5 min, 15 µL of 8 mM NADPH solution pre-warmed at 37°C for 5-10 min was added to initiate the reaction. After incubation in the 96-well plate at 37°C for 5 min, 180 µL of acetonitrile/methanol (ACN:MeOH = 1:1) solution containing the internal standard (IS) was added to terminate the reaction. The 96-well plate was shaken at 600 rpm for 5-10 min, and then centrifuged at 6000 rpm for 15 min. 80 µL of supernatant was taken and added to 120 µL of ultrapure water, shaken uniformly, and then detected by LC-MS/MS.
as §1, with “1 mM positive control inhibitor (ketoconazole)” for “test sample”, “solution” for “solution (12 mM, 4 mM, 1.33 mM, 0.433 mM, 0.147 mM, 0.049 mM, and 0.0164 mM)”, “(20” for “(320 µM testosterone or 20”, “ACN:MeOH (1:1)” for “acetonitrile/methanol (ACN:MeOH = 1:1)”, “IS” for “the internal standard (IS)”, “LC-MS/MS. […]” for “LC-MS/MS.”

[2] = human liver microsomes 0.100 mg/mL, midazolam 5.00 µM as substrate, 5 min incubation, read-out: CYP 3A4M IC50

T2 sequence (P08684 whole entry): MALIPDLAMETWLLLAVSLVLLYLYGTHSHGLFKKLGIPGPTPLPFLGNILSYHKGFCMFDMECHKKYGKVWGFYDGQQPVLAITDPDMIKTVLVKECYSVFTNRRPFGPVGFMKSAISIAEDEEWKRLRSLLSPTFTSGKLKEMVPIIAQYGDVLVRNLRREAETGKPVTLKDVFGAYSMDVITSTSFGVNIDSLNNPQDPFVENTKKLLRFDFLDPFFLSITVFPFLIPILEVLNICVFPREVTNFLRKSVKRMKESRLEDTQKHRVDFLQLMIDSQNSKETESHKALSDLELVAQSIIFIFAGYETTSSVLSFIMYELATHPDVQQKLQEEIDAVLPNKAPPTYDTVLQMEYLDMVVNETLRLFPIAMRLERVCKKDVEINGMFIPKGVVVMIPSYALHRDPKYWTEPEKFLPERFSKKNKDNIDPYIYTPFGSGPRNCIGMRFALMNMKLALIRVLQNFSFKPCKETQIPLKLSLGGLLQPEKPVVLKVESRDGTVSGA
T1 sequence (P32245 whole entry): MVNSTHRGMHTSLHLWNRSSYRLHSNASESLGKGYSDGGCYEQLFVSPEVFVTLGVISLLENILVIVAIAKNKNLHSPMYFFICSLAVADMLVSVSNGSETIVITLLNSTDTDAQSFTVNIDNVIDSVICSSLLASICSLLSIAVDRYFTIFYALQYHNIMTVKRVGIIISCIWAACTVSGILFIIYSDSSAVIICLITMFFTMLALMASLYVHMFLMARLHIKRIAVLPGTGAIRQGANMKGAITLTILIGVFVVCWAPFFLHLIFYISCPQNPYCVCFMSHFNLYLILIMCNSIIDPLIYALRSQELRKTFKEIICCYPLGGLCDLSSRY

Row | IC50 (CYP 3A4M; [2]) | Compound | IC50 (MC4R) | F [1] | AUC [1] | Cmax [1] | clearance [1] | half-life [1] | IC50 (CYP 3A4M)
1 | 5800 nM | COc1cc([C@@H](C)C(=O)N2CC[C@H](Nc3ccc(-c4ncccn4)c(C)n3)C2)c(Cl)cn1 [Compound 083-1, (R)-2-(5-chloro-2-methoxypyridine-4-yl)-1-((S)-3-((6-methyl-5-(pyrimidine-2-yl)pyridine-2-yl)amino)pyrrolidine-1-yl)propane-1-one] | 1.82 nM | 31.3% | 240 ng·h/mL | 156 ng/mL | 43.7 mL/min/kg | 39 min | 
2 | 2940 nM | COc1cc([C@@H](C)C(=O)N2CC[C@H](Nc3ccc(-c4nccc(C#N)n4)c(C)n3)C2)c(F)cn1 [Compound 111, 2-(6-(((S)-1-((R)-2-(5-fluoro-2-methoxypyridine-4-yl)propionyl)pyrrolidine-3-yl)amino)-2-methylpyridine-3-yl)pyrimidine-4-nitrile] | 3.4 nM |  |  |  |  |  | 
3 |  | COc1cc([C@@H](C)C(=O)N2C[C@@H](Nc3ccc(-c4cn(C)c(OC(F)F)n4)c(C)n3)C3(CC3)C2)c(F)cn1 [Compound 185, (R)-1-((S)-7-((5-(2-(difluoromethoxy)-1-methyl-1H-imidazol-4-yl)-6-methylpyridine-2-yl)amino)-5-azaspiro[2.4]hept-5-yl)-2-(5-fluoro-2-methoxypyridine-4-yl)propan-1-one] | 0.54 nM | 22.9% | 170 ng·h/mL | 129 ng/mL | 45.4 mL/min/kg | 40.8 min | 
4 | 3750 nM | COc1cc([C@@H](C)C(=O)N2CC[C@H](Nc3ccc(-c4ncccn4)c(C)n3)C2)c(Br)cn1 [Compound 200, (R)-2-(5-bromo-2-methoxypyridine-4-yl)-1-((S)-3-((6-methyl-5-(pyrimidine-2-yl)pyridine-2-yl)amino)pyrrolidine-1-yl)propan-1-one] | 0.98 nM |  |  |  |  |  | 
5 |  | COc1cc([C@@H](C)C(=O)N2C[C@@H](Nc3ccc(-c4ncccn4)c(C)n3)C3(CC3)C2)c(Br)cn1 [Compound 201, (R)-2-(5-bromo-2-methoxypyridine-4-yl)-1-((S)-7-((6-methyl-5-(pyrimidine-2-yl)pyridine-2-yl)amino)-5-azaspiro[2.4]hept-5-yl)propan-1-one] | 1.41 nM |  |  |  |  |  | > 30000 nM

Row | Compound | IC50 (CYP 3A4M; [2]) | IC50 (MC4R) | F [1] | AUC [1] | Cmax [1] | clearance [1] | half-life [1] | IC50 (CYP 3A4M)
6 | COc1cc([C@@H](C)C(=O)N2C[C@@H](Nc3ccc(-c4ncccn4)c(C)n3)C3(CC3)C2)c(Cl)cn1 [Compound 114, (R)-2-(5-chloro-2-methoxypyridine-4-yl)-1-((S)-7-((6-methyl-5-(pyrimidine-2-yl)pyridine-2-yl)amino)-5-azaspiro[2.4]heptane-5-yl)propan-1-one] | 29500 nM | 2.45 nM | 54.0% | 450 ng·h/mL | 197 ng/mL | 39.9 mL/min/kg | 58.8 min | 
7 | COc1cc([C@@H](C)C(=O)N2C[C@@H](Nc3ccc(-c4nccc(C#N)n4)c(C)n3)C3(CC3)C2)c(F)cn1 [Compound 116, 2-(6-(((S)-5-((R)-2-(5-fluoro-2-methoxypyridine-4-yl)propionyl)-5-azaspiro[2.4]heptane-7-yl)amino)-2-methylpyridine-3-yl)pyrimidine-4-nitrile] | > 30000 nM | 2.15 nM |  |  |  |  |  | 

Source: patent EP4620955A1, “MC4R ANTAGONIST COMPOUND, PHARMACEUTICAL COMPOSITION AND PHARMACEUTICAL USE THEREOF” (Changchun Genescience Pharmaceutical Co., Ltd., priority 2022, dated 2024)
